Legend:
Assay type in all cases: cell-based, human
[1] = tested on: caspase 3; test: Western blotting, activated caspase 3, JeKo-1 cells; settings: 0.5 μM, 48 hours after treatment
Method: Specifically, JeKo-1 cells were cultured for 0 (control), 12, 24, and 48 hours in the presence of 0.5 μM of 3EZ,20Ac-ingenol. In addition. Panc-1 cells were cultured for 0 (control), 12, 24, and 48 hours in the presence of 3 μM of 3EZ,20Ac-ingenol. Subsequently, activation of caspase 3 in the respective cells was detected by Western blotting using an anti-activated-caspase antibody (R & D Systems). Furthermore, as a loading control, actin protein was detected using an anti-actin antibody (Sigma).

[2] = tested on: phosphorylated H2AX (γH2AX); test: Western blotting, phosphorylated H2AX, JeKo-1 cells; settings: 0.5 μM, 12 hours after treatment
Method: (§1) Specifically, JeKo-1 cells were cultured for 0 (control), 12, 24 and 48 hours in the presence of 0.5 μM of 3EZ,20Ac-ingenol. In addition, Panc-1 cells were cultured for 0 (control), 12, 24, and 48 hours in the presence of 3 μM of 3EZ,20Ac-ingenol.
(§2) Subsequently, phosphorylation of H2AX in the respective cells was detected using an anti-phosphorylated-H2AX antibody (Millipore). In addition, p21 protein was detected using an anti-p21 antibody (Cell Signaling Technology). Furthermore, as a loading control, actin protein was detected using an anti-actin antibody (Sigma).

[3] = tested on: p21 protein; test: Western blotting, p21 protein, Panc-1 cells; settings: 3 μM
Method: as §1, §2

[4] = tested on: ATR protein; test: Western blotting, ATR protein, BALL-1 cells; settings: 0.5 μM
Method: The effects of 3EZ,20Ac-ingenol treatment on expression of ATR were examined. First, BALL-1 cells were cultured in the presence of 3EZ,20Ac-ingenol at a final concentration of 0.5 μM for 12, 24, and 48 hours, and an expression level of ATR protein was analyzed by Western blotting using an anti-ATR antibody (Santa Cruz). Cells cultured in the absence of 3EZ,20Ac-ingenol were used as controls.
Subsequently, siRNA against ATR (“ON-TARGET Plus Human ATR (545) siRNA-SMARTpool,” GE Dharmacon) was introduced into BALL-1 cells at a final concentration of 50 nM and incubated for 48 hours. Subsequently, a cell medium was replaced with a new medium containing 3EZ,20Ac-ingenol at a final concentration of 0.5 μM and culturing was performed for 12, 24, and 48 hours, and an expression level of ATR protein was analyzed by Western blotting using an anti-ATR antibody (Santa Cruz).
Cells into which control siRNA (“ON-TARGET Plus Nontargeting pool,” GE Dharmacon) was introduced and which were then cultured in the absence of 3EZ,20Ac-ingenol were used as controls.

[5] = tested on: BALL-1 cells; test: MTT assay, BALL-1 cells with siRNA against ATR; settings: 0.5 μM, 48 hours
Method: An effect of ATR activity on cell proliferation inhibition was examined. In the same manner as in Experimental Example 9, siRNA against ATR was introduced into BALL-1 cells, and the cells were incubated for 48 hours. Subsequently, a cell medium was replaced with a medium containing 3EZ,20Ac-ingenol at a final concentration of 0.5 μM, and culturing was performed for 48 hours.
For comparison, BALL-1 cells cultured for 48 hours in a medium containing 3EZ,20Ac-ingenol at a final concentration of 0.5 μM without introduction of siRNA were used. In addition, as controls, cells into which control siRNA (“ON-TARGET Plus Nontargeting pool,” GE Dharmacon) was introduced and which were then cultured in the absence of 3EZ,20Ac-ingenol were used.

[6] = tested on: Akt protein; test: Western blotting, total amount of Akt, JeKo-1 cells; settings: 0.5 μM, entire cell fraction
Method: (§3) Specifically, first, JeKo-1 cells were cultured for 0 (control), 12, 24, and 48 hours in the presence of 0.5 μM of 3EZ,20Ac-ingenol. In addition, Panc-1 cells were cultured for 0 (control), 12, 24, and 48 hours in the presence of 3 μM of 3EZ,20Ac-ingenol.
Subsequently, by Western blotting using an anti-Akt antibody (Cell Signaling Technology) and an anti-p-Akt (Ser^473) antibody (Cell Signaling Technology), abundances of total amounts of Akt protein and p-Akt in the entire cell fractions, nuclear fractions, and cytoplasm fractions of the respective cells were analyzed. Furthermore, as a loading control, actin protein was detected using an anti-actin antibody (Sigma).

[7] = tested on: cyclin D1; test: Western blotting, cyclin D1, BALL-1 cells; settings: 0.5 μM
Method: Specifically, BALL-1 cells were cultured for 12, 24, and 48 hours in the presence of 3EZ,20Ac-ingenol at a final concentration of 0.5 μM, and abundances of cyclin D1 in the nuclear fraction and the cytoplasm fraction were analyzed by Western blotting. In addition, cells cultured in the absence of 3EZ,20Ac-ingenol were used as controls.
Whether transfer of cyclin D1 from the nucleus to the cytoplasm is ATR-dependent and PTEN-dependent was examined using siRNA against ATR and siRNA against PTEN. First, siRNA against ATR (“ON-TARGET Plus Human ATR (545) siRNA-SMARTpool,” GE Dharmacon), siRNA against PTEN (“ON-TARGET Plus Human PTEN (5728) siRNA-SMARTpool,” GE Dharmacon), and control siRNA (“ON-TARGET Plus Nontargeting pool,” GE Dharmacon) were respectively introduced into BALL-1 cells at a final concentration of 50 nM, and incubated for 48 hours.
Subsequently, a cell medium was replaced with a new medium containing 3EZ,20Ac-ingenol at a final concentration of 0.5 μM, and culturing was performed for 24 and 48 hours. Subsequently, abundances of cyclin D1 in the nuclear fraction and the cytoplasm fraction were analyzed by Western blotting using an anti-cyclin-D1 antibody (Santa Cruz).

[8] = tested on: cyclin D1; test: Western blotting, cyclin D1, JeKo-1 cells; settings: 0.5 μM; for abundance of cyclin D1: cytoplasm fraction
Method: as §3
(§4) Subsequently, abundances of cyclin D1 in entire cell fractions, nuclear fractions, and cytoplasm fractions of the respective cells were analyzed by Western blotting.

[9] = tested on: cyclin D1; test: Western blotting, cyclin D1, Panc-1 cells; settings: 3 μM
Method: as §3, §4

## CCCCC/C=C\C=C\C(=O)O[C@H]1C(C)=C[C@]23C(=O)[C@@H](C=C(COC(C)=O)[C@@H](O)[C@]12O)[C@H]1[C@@H](C[C@H]3C)C1(C)C [3EZ,20Ac-ingenol, 3-O-(2′E,4′Z-decadienoyl)-20-O-acetylingenol]
[1]
  activation of caspase 3: activation of caspase 3 was observed
[2]
  phosphorylation of H2AX: phosphorylation of H2AX was detected
[3]; 12 hours after treatment
  expression of p21 protein: induction of a high expression level of p21 protein was observed
[3]; 48 hours after treatment
  expression of p21 protein: a rapid decrease in p21 protein was recognized
[4]; cells with siRNA against ATR introduced, 12, 24, 48 hours
  expression of ATR: an increase in ATR expression was not recognized
[4]; from 12 hours until 48 hours
  expression of ATR: the expression of ATR increased
[5]
  reduction of cell proliferation inhibition by knockdown of ATR: about 20%
[6]
  abundance of a total amount of Akt: almost no change was observed
[7]; cytoplasm fraction, 12 hours and 24 hours
  abundance of cyclin D1: increased
[7]; cytoplasm fraction, after 48 hours
  abundance of cyclin D1: decreased again
[7]; nuclear fraction, 24 hours
  abundance of cyclin D1: a decrease in abundance of cyclin D1 was observed
[7]; siRNA against ATR introduced, cytoplasm fraction, 24 hours
  abundance of cyclin D1: abundances of cyclin D1 in the cytoplasm fractions increased
[7]; siRNA against ATR introduced, cytoplasm fraction, 48 hours
  abundance of cyclin D1: abundances of cyclin D1 in the cytoplasm fractions decreased again
[7]; siRNA against ATR introduced, nuclear fraction, 24 and 48 hours
  abundance of cyclin D1: an abundance of cyclin D1 was large
[7]; siRNA against PTEN introduced, cytoplasm fraction, 24 hours
  abundance of cyclin D1: abundances of cyclin D1 in the cytoplasm fractions increased
[7]; siRNA against PTEN introduced, cytoplasm fraction, 48 hours
  abundance of cyclin D1: abundances of cyclin D1 in the cytoplasm fractions decreased again
[7]; siRNA against PTEN introduced, nuclear fraction, 24 and 48 hours
  abundance of cyclin D1: an abundance of cyclin D1 was large
[8]; 12 to 48 hours
  abundance of cyclin D1: an increase in abundance of cyclin D1 was recognized
[8]; thereafter
  abundance of cyclin D1: a decrease was recognized thereafter
[8]; entire cell fraction, 12 to 48 hours
  expression level of cyclin D1: a decrease in expression level of cyclin D1 was observed
[8]; nuclear fraction, 12 to 48 hours
  expression level of cyclin D1: a slight decrease in expression level of cyclin D1 was observed
[9]; cytoplasm fraction, 12 to 48 hours
  abundance of cyclin D1: an abundance of cyclin D1 decreased
[9]; entire cell fraction, 12 to 24 hours
  expression level of cyclin D1: temporarily increased
[9]; entire cell fraction, after 24 hours
  expression level of cyclin D1: then decreased thereafter
[9]; nuclear fraction, 12 hours
  expression level of cyclin D1: temporarily increased
[9]; nuclear fraction, after 24 hours
  expression level of cyclin D1: decreased after 24 hours
